Data from the supplement of paper PMC4862054.

Experiments:
Conditions in all cases: incubation time: 72 h
MDA-MB-436 [1] = assay: normalised viability (% of control), CellTiter-Blue; higher = more viable cells (about 100 = DMSO control)
Method in brief: (§1)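 Vehicle (100) and a positive kill control (0) anchored the normalisation of each plate, and Z'-factor was used for quality control. Breast cancer cell lines in 20 µl suspension were incubated 72 h over compound in 5 µl medium in 384-well plates, followed by CellTiter-Blue at 560/590 nm. The value is normalised viability at a single listed concentration of the series.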

MFM-223 [2] = assay: as above
Method in brief: as §1

SK-BR-3 = assay: as above
Method in brief: as §1

CAL-120 = assay: as above
Method in brief: as §1

CAL-85-1 [3] = assay: as above
Method in brief: as §1

CAL-148 [4] = assay: as above
Method in brief: as §1

HCC1937 = assay: as above
Method in brief: as §1

HCC1599 [5] = assay: as above
Method in brief: as §1

CAL-51 [6] = assay: as above
Method in brief: as §1

MDA-MB-453 [7] = assay: as above
Method in brief: as §1

HCC1143 [8] = assay: as above
Method in brief: as §1

HDQ-P1 = assay: as above
Method in brief: as §1

DU-4475 [9] = assay: as above
Method in brief: as §1

Hs578T = assay: as above
Method in brief: as §1

BT-474 = assay: as above
Method in brief: as §1

MDA-MB-436 [10] = assay: normalised response (% of control), CellTox Green; higher = less cell death (100 = DMSO, 0 = benzethonium chloride kill control)
Method in brief: (§2)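 The table gives the normalised signal for a single concentration in each entry. Breast cancer cell lines were seeded (20 µl suspension) into 384-well plates holding compound at 5 concentrations in 10-fold steps over a compound-specific 10,000-fold range and incubated 72 h, then read for CellTox Green fluorescence (485/520 nm) and CellTiter-Glo luminescence. Normalisation on each plate used 0.1 % DMSO (100) and a positive kill control (0).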

MCF-10A = assay: as above
Method in brief: as §2

MFM-223 [11] = assay: as above
Method in brief: as §2

CAL-85-1 [12] = assay: as above
Method in brief: as §2

CAL-148 [13] = assay: as above
Method in brief: as §2

HCC1599 [14] = assay: as above
Method in brief: as §2

CAL-51 [15] = assay: as above
Method in brief: as §2

MDA-MB-453 [16] = assay: as above
Method in brief: as §2

HCC1143 [17] = assay: as above
Method in brief: as §2

DU-4475 [18] = assay: as above
Method in brief: as §2

CC(C)C[C@H](NC(=O)[C@H](Cc1ccccc1)NC(=O)c1cnccn1)B(O)O [Bortezomib]
normalised viability (MDA-MB-436 [1]; 1 nM): 101%
normalised viability (MDA-MB-436 [1]; 100 nM): 12.2%
normalised viability (MDA-MB-436 [1]; 1000 nM): 9.29%
normalised viability (MFM-223 [2]; 1 nM): 104%
normalised viability (MFM-223 [2]; 100 nM): 16.9%
normalised viability (MFM-223 [2]; 1000 nM): 15.3%
normalised viability (SK-BR-3; 1 nM): 90.2%
normalised viability (SK-BR-3; 100 nM): 17.5%
normalised viability (SK-BR-3; 1000 nM): 15.6%
normalised viability (CAL-120; 1 nM): 95.8%
normalised viability (CAL-120; 100 nM): 4.31%
normalised viability (CAL-120; 1000 nM): 3.21%
normalised viability (CAL-85-1 [3]; 0.3 nM): 104%
normalised viability (CAL-85-1 [3]; 3 nM): 92.1%
normalised viability (CAL-85-1 [3]; 10 nM): 36.5%
normalised viability (CAL-148 [4]; 0.3 nM): 99.6%
normalised viability (CAL-148 [4]; 3 nM): 89%
normalised viability (CAL-148 [4]; 10 nM): 94.4%
normalised viability (HCC1937; 1 nM): 83.4%
normalised viability (HCC1937; 100 nM): 8.79%
normalised viability (HCC1937; 1000 nM): 3.46%
normalised viability (HCC1599 [5]; 1 nM): 130%
normalised viability (HCC1599 [5]; 100 nM): 64.5%
normalised viability (HCC1599 [5]; 1000 nM): 45.2%
normalised viability (CAL-51 [6]; 0.3 nM): 101%
normalised viability (CAL-51 [6]; 3 nM): 97.9%
normalised viability (CAL-51 [6]; 10 nM): 97.7%
normalised viability (MDA-MB-453 [7]; 0.3 nM): 106%
normalised viability (MDA-MB-453 [7]; 3 nM): 112%
normalised viability (MDA-MB-453 [7]; 10 nM): 20.9%
normalised viability (HCC1143 [8]; 1 nM): 81%
normalised viability (HCC1143 [8]; 100 nM): 19.4%
normalised viability (HCC1143 [8]; 1000 nM): 17.4%
normalised viability (HDQ-P1; 0.3 nM): 79.4%
normalised viability (HDQ-P1; 3 nM): 87.9%
normalised viability (HDQ-P1; 10 nM): 10.2%
normalised viability (DU-4475 [9]; 0.3 nM): 113%
normalised viability (DU-4475 [9]; 3 nM): 93.4%
normalised viability (DU-4475 [9]; 10 nM): 98.8%
normalised viability (Hs578T; 1 nM): 91.1%
normalised viability (Hs578T; 100 nM): 2.89%
normalised viability (Hs578T; 1000 nM): 0.76%
normalised viability (BT-474; 1 nM): 101%
normalised viability (BT-474; 100 nM): 36.6%
normalised viability (BT-474; 1000 nM): 22.4%

CN1CCN(c2ccc3nc(-c4c(N)c5c(F)cccc5[nH]c4=O)[nH]c3c2)CC1 [Dovitinib] (10000 nM)
normalised response (MDA-MB-436 [10]): 108%
normalised response (MCF-10A): 99.3%
normalised response (MFM-223 [11]): 99.1%
normalised response (CAL-85-1 [12]): 86.8%
normalised response (CAL-148 [13]): 92.4%
normalised response (HCC1599 [14]): 104%
normalised response (CAL-51 [15]): 118%
normalised response (MDA-MB-453 [16]): 103%
normalised response (HCC1143 [17]): 111%
normalised response (DU-4475 [18]): 101%
